Converted amounts (≈) assume the structure as drawn.
Legend:
Aspergillus niger [1] = assay: Compound was screened in vitro for antifungal activity at a minimum inhibitory concentration (~100 ug/mL) against Aspergillus nigerl; Not effected; assay type: functional
Pichia kudriavzevii = assay: In vitro antifungal activity against Candida krusei (CK 28838); assay type: functional
Candida albicans [2] = assay: In vitro antifungal activity against Candida albicans (CA 62376); Weak; assay type: functional, organism-based
Homo sapiens = organism: Homo sapiens; assay: Inhibitory activity against human concanavalin-A proliferation assay; assay type: functional
Candida albicans [3] = assay: In vitro antifungal activity against Candida albicans (CA 10231); assay type: functional
Candida albicans [4] = assay: In vitro antifungal activity against […] (CA 34140); Not affected.; assay type: functional
Nakaseomyces glabratus = assay: In vitro antifungal activity against Torulopsis glabrata (TG 15545); assay type: functional
Candida tropicalis [5] = assay: In vitro antifungal activity against Candida tropicalis (CT 750); assay type: functional
Candida albicans [6] = assay: In vitro antifungal activity against Candida albicans (CA 442); Weak; assay type: functional, organism-based
Candida albicans [7] = assay: In vitro antifungal activity against Candida albicans (CA 38247); Weak; assay type: functional, organism-based
Candida albicans [8] = assay: In vitro for antifungal activity against Candida albicans (CA 579a); assay type: functional
Candida tropicalis [9] = assay: Compound was screened in vitro for antifungal activity against Candida tropicalis (CT 750)
Candida albicans [10] = assay: Compound was screened in vitro for antifungal activity against Candida albicans (CA 38247); assay type: functional
Aspergillus niger [11] = assay: In vitro antifungal activity at a minimum inhibitory concentration (~100 ug/mL) against Aspergillus niger; Not affected; assay type: functional; conditions: Aspergillus niger; read-out: MIC
Candida albicans [12] = assay: Compound was screened in vitro for antifungal activity at a minimum inhibitory concentration (~100 ug/mL) against […] ([…]); Not affected; assay type: functional
Candida albicans [13] = assay: Compound was screened in vitro for antifungal activity against Candida albicans (CA 442); assay type: functional
Candida albicans [14] = assay: Compound was screened in vitro for antifungal activity against Candida albicans (CA 62376); assay type: functional
Candida albicans [15] = assay: Compound was screened in vitro for antifungal and immunosuppressive activity against Candida albicans (CA 38247); assay type: functional
Aspergillus niger [16] = assay: Compound was screened in vitro for antifungal activity at a minimum inhibitory concentration (~100 ug/mL) against Aspergillus niger; not affected; assay type: functional
Candida albicans [17] = assay: Compound was screened in vitro for antifungal activity at a minimum inhibitory concentration (~100 ug/mL) against […] (CA 34140); not affected; assay type: functional
Candida albicans [18] = assay: Compound was screened in vitro for antifungal activity against Candida albicans (CA 442); weak; assay type: functional, organism-based
Candida albicans [19] = assay: Compound was screened in vitro for antifungal activity against Candida albicans (CA 62376); weak; assay type: functional, organism-based
Candida albicans [20] = assay: Compound was screened in vitro for antifungal activity against Candida albicans (CA 38247); weak; assay type: functional, organism-based

Row | MIC (Pichia kudriavzevii) | MIC (Candida albicans [2]) | MIC (Candida albicans [3]) | MIC (Nakaseomyces glabratus) | MIC (Candida tropicalis [5]) | MIC (Candida albicans [6]) | MIC (Candida albicans [7]) | MIC (Candida albicans [8]) | MIC (Candida albicans [13]) | MIC (Candida albicans [14]) | Compound | IC50 (Homo sapiens) | further results
1 | 6.25 µg/mL (≈ 6.08 µM) | Weak | 25 µg/mL (≈ 24.3 µM) | 6.25 µg/mL (≈ 6.08 µM) | 25 µg/mL (≈ 24.3 µM) | Weak | Weak | 50 µg/mL (≈ 48.6 µM) | – | – | CO[C@@H]1C[C@H](C[C@@H](C)[C@@H]2CC(=O)[C@H](C)/C=C(\C)[C@@H](O)[C@@H](OC)C(=O)[C@H](C)C[C@H](C)/C=C/C=C/C=C(\C)[C@H](N(O)C(=O)N3CCOCC3)C[C@@H]3CC[C@@H](C)[C@@](O)(O3)C(=O)C(=O)N3CCCC[C@H]3C(=O)O2)CC[C@H]1O | 1740 nM | MIC (Aspergillus niger [1]): ~100 µg/mL (≈ 97.2 µM); MIC (Candida albicans [4]): ~100 µg/mL (≈ 97.2 µM)
2 | 0.78 µg/mL (≈ 0.853 µM) | Weak | 0.2 µg/mL (≈ 0.219 µM) | < 0.1 µg/mL | – | Weak | Weak | 0.2 µg/mL (≈ 0.219 µM) | 0.2 µg/mL (≈ 0.219 µM) | 0.2 µg/mL (≈ 0.219 µM) | CO[C@H]1C[C@@H]2CC[C@@H](C)[C@@](O)(O2)C(=O)C(=O)N2CCCC[C@H]2C(=O)O[C@H]([C@H](C)C[C@@H]2CC[C@@H](O)[C@H](OC)C2)CC(=O)[C@H](C)/C=C(\C)[C@@H](O)[C@@H](OC)C(=O)[C@H](C)C[C@H](C)/C=C/C=C/C=C/1C [SIROLIMUS] | 1 nM | MIC (Candida tropicalis [9]): 0.2 µg/mL (≈ 0.219 µM); MIC (Candida albicans [10]): 0.2 µg/mL (≈ 0.219 µM); MIC (Aspergillus niger [11]): ~100 µg/mL (≈ 109 µM); MIC (Candida albicans [12]): ~100 µg/mL (≈ 109 µM)
3 | > 100 µg/mL | – | > 100 µg/mL | – | > 100 µg/mL | – | – | > 100 µg/mL | > 100 µg/mL | > 100 µg/mL | CO[C@H]1C[C@@H]2CC[C@@H](C)[C@@](O)(O2)C(=O)C(=O)N2CCCC[C@H]2C(=O)O[C@H]([C@H](C)C[C@@H]2CC[C@@H](OC(=O)c3ccc([N+](=O)[O-])cc3)[C@H](OC)C2)CC(=O)[C@H](C)/C=C(\C)[C@@H](O)[C@@H](OC)C(=O)[C@H](C)C[C@H](C)CCCC/C=C/1C | – | MIC (Candida albicans [15]): > 100 µg/mL
4 | 3.12 µg/mL (≈ 3.26 µM) | – | 6.25 µg/mL (≈ 6.53 µM) | 1.56 µg/mL (≈ 1.63 µM) | 6.25 µg/mL (≈ 6.53 µM) | – | – | 6.25 µg/mL (≈ 6.53 µM) | – | – | CO[C@@H]1C[C@H](C[C@@H](C)[C@@H]2CC(=O)[C@H](C)/C=C(\C)[C@@H](O)[C@@H](OC)C(=O)[C@H](C)C[C@H](C)/C=C/C=C/C=C(\C)[C@H](N(O)C(C)=O)C[C@@H]3CC[C@@H](C)[C@@](O)(O3)C(=O)C(=O)N3CCCC[C@H]3C(=O)O2)CC[C@H]1O | 95 nM | MIC (Aspergillus niger [16]): ~100 µg/mL (≈ 104 µM); MIC (Candida albicans [17]): ~100 µg/mL (≈ 104 µM); MIC (Candida albicans [18]): Weak; MIC (Candida albicans [19]): Weak; MIC (Candida albicans [20]): Weak

Source: ChEMBL document CHEMBL1133206, “Antifungal rapamycin analogues with reduced immunosuppressive activity” (Bioorg Med Chem Lett, 2000)
